Measurements reported in ChEMBL document CHEMBL1123884, “Preparation and antileukemic screening of some new 6'-deoxyhexopyranosyladenine nucleosides” (J Med Chem, 1987).

What was measured:
L1210 [1] = assay: Antileukemic activity against L1210 cells in culture at a concentration of 10e-4 M; Inactive; type: functional, cell-based, Mus musculus
L1210 [2] = assay: Antileukemic activity against L1210 cells in culture at a concentration of 5 X 10e-4 M; extremely weak; type: functional, cell-based; details: Mus musculus
L1210 [3] = assay: Antileukemic activity against L1210 cells in culture at a concentration of 10e-4 M; Active; type: functional, cell-based, Mus musculus

C[C@@H]1O[C@@H](n2cnc3c(N)ncnc32)[C@H](O)[C@H](O)[C@@H]1O
IC50 (L1210 [1]): Not Active

Nc1ncnc2c1ncn2C1OCC(O)C(O)C1O (stereo unspecified)
inhibition (L1210 [2]): Extremely weak

C[C@@H]1O[C@@](CO)(n2cnc3c(N)ncnc32)[C@@H](O)[C@@H]1O
IC50 (L1210 [1]): Not Active

C[C@H]1O[C@@H](n2cnc3c(N)ncnc32)[C@H](O)[C@@H](O)[C@H]1O
IC50 (L1210 [3]): Active

C[C@H]1O[C@@H](n2cnc3c(N)ncnc32)[C@H](O)[C@@H](O)[C@@H]1O
IC50 (L1210 [1]): Not Active

Nc1ncnc2c1ncn2C1OC(CO)C(O)C(O)C1O (stereo unspecified)
IC50 (L1210 [1]): Not Active
